These results are taken from patent US10696661B2, “Compounds” (Exonate Limited, priority 2015, dated 2020).

The test system of test [1] is VEGF165b and VEGF165 protein in retinal pigmented epithelial cells. Description: VEGF isoform specific ELISA in retinal pigmented epithelial cells. The class given is cell-based, human. Conditions: relative to DMSO control, FIG. 3. Here is the method:
96-well clear microplate (high sensitivity thermo immulon or costar 9018) were coated with 100 μL of 10 μg/ml VEGFxxxb or 0.25 μg/ml anti-hVEGF165a per well. The plate was sealed with parafilm and incubated overnight on the shaker at room temp. Each well was aspirated and washed with Wash Buffer (200 μl PBS-Tween 0.05%), two times for a total of three washes. After the last wash, remaining Wash Buffer was removed by inverting the plate and blotting it against clean paper towels. Plates were blocked by adding 100 μl of Reagent Diluent (1% BSA/PBS) to each well and incubated at room temp on a shaker for 2 hours. The aspiration/wash step was repeated. 100 μL of standards or samples in 1% BSA/PBS were added to each well, covered with parafilm and incubated 2 hours at room temperature. The aspiration/wash was repeated and 100 μL of 100 ng/ml Detection Antibody (BAF293), diluted in Reagent Diluent, was added to each well which were covered with parafilm and incubated 2 hours at room temp. The aspiration/wash was repeated and 100 μL of the working dilution of Streptavidin-HRP (1:200 dilution) was added to each well. […] The optical density of each well was measured immediately, using a microplate reader set to 450 nm.
To determine whether these compounds could switch splicing of VEGF isoforms, VEGF was measured in retinal pigmented epithelial cells by isoform specific ELISA.
In general terms: In an ELISA, binding on a coated surface is turned into a signal by an enzyme label.

Test [2] concerns laser-induced choroidal neovascularisation (CNV). Nature of the test: Laser-induced choroidal neovascularisation (CNV) in mice, topical eye drops. Format: in vivo. The conditions noted are these: mouse, eye drop, FIG. 4-7. On the procedure: 6-8 week-old female C57/B6 mice were anesthetized with an intraperitoneal injection of a mixture of 50 mg/kg ketamine and 0.5 mg/kg medetomidine. The pupils were immediately dilated by topical (eyedrop) application with a dilator such as 5% phenylephrine hydrochloride and 1% tropicamide. Four photocoagulation lesions were delivered with a green Merilas 532a laser (450 mW, 130 ms) between the “large” retinal vessels in clear space with no vessels in a peripapillary distribution at a distance of 1-2 disc-diameters in each eye. Only clean laser lesions with a subretinal bubble at the time of treatment were included in the study. Immediately following laser photocoagulation the animals were given topical eye drops of candidate compounds twice daily (10 μl, eyes held for 30 seconds to prevent animal wiping drop away).
After one week, mice were anesthetized with an intraperitoneal injection of a mixture of 50 mg/kg ketamine and 0.5 mg/kg medetomidine. The pupils were immediately dilated by topical (eyedrop) application with a dilator such as 5% phenylephrine hydrochloride and 1% tropicamide. Mice were administered an intraperitoneal injection of sodium fluorescein (10%). Phase contrast and green fluorescent fundus images were taken with an angiography microscope and camera with each lesion in focus. […]

Test [3] deals with VEGF165b and VEGF165. Conditions: cited from earlier work.
The test system of test [4] is VEGF-A165a / VEGF-A165b mRNA in primary RPE cells and ARPE-19 cells. Nature of the test: qRT-PCR and conventional PCR of VEGF-A alternative splicing. The conditions noted are these: FIGS. 8 and 9. The class given is cell-based, human. The text has this: Primary human retinal epithelial cells were lysed in Trizol reagent and mRNA was extracted using the method of Chomczynski and Sacchi, or using an RNeasy RNA extraction kit (Qiagen, UK). mRNA was reverse transcribed using Thermoscript reverse transcriptase (Fisher Scientific, UK). The cDNA was amplified using primers designed to amplify the region spanning the proximal and distal splice sites in human VEGF-A165a and VEGF-A165b, to amplify both isoforms and differentiate between them due to the fact that the exon 8b-containing isoform is 66-bp shorter than the exon 8a-containing isoform. The primers used were; 5′-[…]-3′ (SEQ ID NO:2) and 5′-[…]-3′ (SEQ ID NO:3) with the following conditions; 96° C. for 2 min followed by 45 cycles at 96° C.-30 s, 60° C.-30 s and 72° C.-30 s. The PCR mix consisted of DNA: 200 ng, MgCl2 0.25 mM, Primer each […], Taq polymerase 1 unit and dH2O up to 25 μl. Control plasmid concentration: VEGF165a 500 ng and VEGF165b 1 μg. PCR products were run on 3% agarose gels containing 0.5 μg/ml ethidium bromide.
RNA was isolated and reverse transcribed as described above. Quantitative PCR (qPCR) was performed with a LightCycler 480 (Roche) q-PCR machine. The qPCR mix included PCR-grade dH2O 3 PCR Primer (1 μM) 2 μl. […]
VEGF-A alternative splicing was further measured in retinal pigmented epithelial cells by qRT-PCR and conventional PCR.
Background: In qPCR the cycle at which signal appears reflects the starting amount.

Test [5] concerns neovascular AMD. The conditions noted are these: treated monthly, 0.5 mg, at one year; cited from earlier work.

Bounds are passed on as bounds.

For `O=C(Nc1cc(C(F)(F)F)ccc1N1CCN(Cc2cocn2)CC1)c1ccc(-c2ccncc2)o1` [Compound 17, N-(2-(4-(oxazol-4-ylmethyl)piperazin-1-yl)-5-(trifluoromethyl)phenyl)-5-(pyridin-4-yl)furan-2-carboxamide], in test [1], the VEGF165b protein entry is on record as “increase in VEGF165b” and the VEGF165 protein result is reported as “not VEGF165 protein”. Moreover, the “anti-angiogenic activity on lesion size / efficacy compared with reference compound” value in test [2] (listed as N-(2-(4-(oxazol-4-ylmethyl)piperazin-1-yl)-5-(trifluoromethyl)phenyl)-5-(pyridin)) is “same efficacy”. For the same molecule, in test [2] (listed as compound 17), the “anti-angiogenic activity on lesion size / efficacy compared with reference compound” value is “same anti-angiogenic activity on lesion size and the same efficacy as reference compounds”.

Consider “bevicizumab (Avastin): an anti-VEGF antibody from which Lucentis was derived”, for which the “binding potency to VEGF165b versus VEGF165” value in test [3] is recorded as “equal potency”.

With `O=C(Nc1cc(C(F)(F)F)ccc1N1CCN(Cc2cc[nH]n2)CC1)c1ccc(C2CCOCC2)o1` [Compound 14, N-(2-(4-((1H-pyrazol-3-yl)methyl)piperazin-1-yl)-5-(trifluoromethyl)-phenyl)-5-(tetrahydro-2H-pyran-4-yl)furan-2-carboxamide], the “VEGF-A165a/VEGF165b mRNA isoform expression” value in test [4] (endothelial cells (figure legend)) is “decrease”. In addition, the “levels of VEGF165b relative to VEGF165 RNA” value in test [4] (primary RPE cells and ARPE-19 cells) is recorded as “switched the levels of VEGF165b relative to VEGF165 RNA by a decrease in VEGF165”.

B1: Lucentis: a novel humanized anti-VEGF antibody fragment (antibody, chains of the INN, looked up, V domains shown)
VH: EVQLVESGGGLVQPGGSLRLSCAASGYDFTHYGMNWVRQAPGKGLEWVGWINTYTGEPTYAADFKRRFTFSLDTSKSTAYLQMNSLRAEDTAVYYCAKYPYYYGTSHWYFDVWGQGTLVTVSS
VL: DIQLTQSPSSLSASVGDRVTITCSASQDISNYLNWYQQKPGKAPKVLIYFTSSLHSGVPSRFSGSGSGTDFTLTISSLQPEDFATYYCQQYSTVPWTFGQGTKVEIK
modifications: Fab
notes: a novel humanized anti-VEGF antibody fragment
Turning to B1, in test [5], the “patients who maintained visual acuity (loss of <15 letters)” value is listed as “approximately 95%” and the “patients with improved vision (gain of ≥15 letters)” value is listed as no more than 40%.
